From PubChem BioAssay (NCI)
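These data come from cells grown in 96-well plates and exposed to compound for 48 hours at five concentrations. GI50: concentration for 50% inhibition of growth. At the TGI there is no net growth.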

Tests used:
Test in all cases: inhibition of tumour cell growth, NCI panel, 48 h
A498 renal = tested on: A498 renal
LOX IMVI melanoma = tested on: LOX IMVI melanoma
M14 melanoma = tested on: M14 melanoma
NCI-H226 lung = tested on: NCI-H226 lung
SF-295 CNS = tested on: SF-295 CNS
SN12C renal = tested on: SN12C renal
UO-31 renal = tested on: UO-31 renal
HL-60(TB) leukemia = tested on: HL-60(TB) leukemia
SW-620 colon = tested on: SW-620 colon
MDA-MB-231 breast = tested on: MDA-MB-231 breast

Structure (SMILES) | GI50 (A498 renal) [µM] | TGI (A498 renal) [µM] | GI50 (LOX IMVI melanoma) [µM] | TGI (LOX IMVI melanoma) [µM] | GI50 (M14 melanoma) [µM] | TGI (M14 melanoma) [µM] | GI50 (NCI-H226 lung) [µM] | TGI (NCI-H226 lung) [µM] | GI50 (SF-295 CNS) [µM] | TGI (SF-295 CNS) [µM] | GI50 (SN12C renal) [µM] | TGI (SN12C renal) [µM] | GI50 (UO-31 renal) [µM] | TGI (UO-31 renal) [µM] | TGI (HL-60(TB) leukemia) [µM] | TGI (SW-620 colon) [µM] | TGI (MDA-MB-231 breast) [µM]
C=C(C)C1CC/C(C)=C/CC[C@]2(C)O[C@@H]2CCC2=CC1OC2=O (stereo partly drawn) | 23.2 | > 100 | 15.1 | 48.2 | 37.2 | > 100 | > 100 | > 100 | 24 | > 100 | 78.8 | > 100 | 12.7 | 25.3 | – | – | –
COC(=O)CC(C(C(=O)OCc1ccccc1)C(C)O)N1C(=O)OC(c2ccccc2)C1c1ccccc1 (stereo not drawn) | – | > 100 | – | > 100 | – | > 100 | – | > 100 | – | > 100 | – | > 100 | – | > 100 | > 100 | > 100 | –
O=c1c2ccccc2nc(-c2ccccc2)n1NC(=S)Nc1ccc(Cl)cc1 | – | > 100 | – | > 100 | – | > 100 | – | > 100 | – | > 100 | – | > 100 | – | > 100 | > 100 | > 100 | –
COC(=O)CCc1c(Cc2ccc[nH]2)[nH]c(C(=O)OCc2ccccc2)c1C | – | 62.8 | – | 35.1 | – | 30.4 | – | 35.4 | – | 53.3 | – | 35.6 | – | – | – | 45.7 | 28.9
COC(=O)[C@@](C)(COC(=O)C(C)(C)C)NC(=O)OC(C)(C)C | – | > 100 | – | > 100 | – | > 100 | – | > 100 | – | > 100 | – | > 100 | – | > 100 | – | > 100 | > 100
CC(=O)NC1=C(NCCCl)C(=O)c2ccccc2C1=O | – | – | – | – | – | 27.7 | – | > 100 | – | > 100 | – | > 100 | – | – | – | > 100 | > 100
Cc1c(OCc2ccccc2)c(=O)ccn1CCc1c[nH]c2ccccc12 | – | – | – | > 100 | – | 86.2 | – | – | – | > 100 | – | > 100 | – | > 100 | – | > 100 | > 100
CS(=O)(=O)c1nc(-c2cc3c(c(S(C)(=O)=O)n2)CCC3)cc2c1CCCC2 | – | – | – | 49.8 | – | > 100 | – | > 100 | – | > 100 | – | > 100 | – | > 100 | > 100 | > 100 | > 100
CC1(C)C(CCO)CC1n1ccc(=O)[nH]c1=O (stereo not drawn) | – | > 100 | – | > 100 | – | > 100 | – | > 100 | – | > 100 | – | > 100 | – | > 100 | – | > 100 | > 100
Cc1ccc(S(=O)(=O)[C@@H](Cl)[C@H]2N=C(Cl)NN=C2c2ccccc2)cc1 | – | 35.7 | – | 51.8 | – | 42.6 | – | 61 | – | > 100 | – | 54 | – | 35.7 | – | 40.8 | 46.6
COc1ccc2nc3c(c(NCCCN(C)C)c2c1)CCCC3 | – | 36.3 | – | 25.8 | – | 26.1 | – | 30.7 | – | 29 | – | 47.2 | – | 39.6 | 29.6 | 51.5 | –
